Values joined by “and” are separate entries in the source; they are usually repeats but may differ in a detail not shown here. Equal values may be shown once. Read-outs that look alike come from different tables or passages of the source.
Experiment: Partition coefficient Kpart between n-octanol and aqueous tris hydrochloride
Assay type: physicochemical
Conditions: n-octanol / aqueous tris hydrochloride (20 mM, pH 7.4); for logD: octanol/tris hydrochloride 20 mm
Protocol: The partition coefficients of four or five samples of each of the compounds of Examples 2 and 4 were measured using essentially the procedure described in Example 25 of UK Patent No. 2 136 807. For comparative purposes a similar measurement was made for the compound 1-(2-acetoxyethyl)-2-ethyl-3-hydroxypyridin-4-one which was prepared by an analogous procedure to that of Example 5 using acetyl chloride in place of isobutyryl chloride. The results obtained for the partition coefficient Kpart, being the ratio (concentration of compound in n-octanol)/concentration of compound in aqueous phase on partition between n-octanol and aqueous tris hydrochloride (20 mM, pH 7.4), are shown in the Table.

[1] = pH 7.4, mean of four or five samples, read-out: partition coefficient Kpart, Mean ± S.E. (converted)

Row | partition coefficient Kpart (concentration in n-octanol / concentration in aqueous phase), individual samples (individual samples 1-5, listed as (CH3)2 CHCOO) | logD (individual samples 1-5, read-out: partition coefficient Kpart (concentration in n-octanol / concentration in aqueous phase), individual samples (converted)) | partition coefficient Kpart, Mean ± S.E. (mean of four or five samples) | SMILES | logD [1] | partition coefficient Kpart (concentration in n-octanol / concentration in aqueous phase), individual samples (individual samples 1-5, listed as (CH3)3 CCOO) | partition coefficient Kpart (concentration in n-octanol / concentration in aqueous phase), individual samples (individual samples 1-5)
1 | 4.541 and 4.224 and 4.797 | 0.699 | – | CCc1c(O)c(=O)ccn1CCOC(=O)C(C)C [Example 4, 2-ethyl-3-hydroxy-1-[2-(α-methylpropionyloxy)ethyl]pyridin-4-one] | 0.667 | – | –
2 | – | – | 6.113 ± 1.622 | CCc1c(O)c(=O)ccn1CCOC(=O)C(C)(C)C [Example 2, 2-ethyl-3-hydroxy-1-(2-pivaloyloxyethyl)pyridin-4-one] | – | 5.104 and 7.992 and 3.870 and 6.742 and 6.855 | –
3 | – | – | – | CCc1c(O)c(=O)ccn1CCOC(C)=O [CH3 COO, 1-(2-acetoxyethyl)-2-ethyl-3-hydroxypyridin-4-one, reference compound] | 0.0366 | – | 1.500 and 0.948 and 0.940 and 0.962
